# Measured values reported in patent US9981956B2, “Small molecule inhibitors of fibrosis” (THE CALIFORNIA INSTITUTE FOR BIOMEDICAL RESEARCH, priority 2013, dated 2018).
# Tested on: fibroblast to myofibroblast transdifferentiation (primary human lung fibroblasts and primary rodent HSCs)
# Assay: High content imaging and western based assay of fibroblast to myofibroblast transdifferentiation (α-SMA)
# Assay type: cell-based
# Conditions: graded, TGF-β induced fibroblast to myofibroblast transdifferentiation
# Text: A high content imaging assay, based on α-SMA staining and cell morphological changes associated with fibroblast to myofibroblast transdifferentiation, was established using primary human lung fibroblasts and primary rodent HSCs. Conditions, involving serum starvation and subsequent TGF-β treatment, were identified that facilitate robust in vitro transdifferentiation in a miniaturized (384 well plate) format that is amenable to high throughput small molecule screening. A selective ALK-5 TGF-β1 receptor inhibitor (SB-431542) was used as a positive control. […] This assay was used to identify a hit compound (itraconazole) and was used to evaluate focused panels of itraconazole analogues generated from medicinal chemistry efforts.
# The activity of Itraconazole and its analogues was confirmed by analyzing changes in gene expression of multiple genes associated with fibroblast to myofibroblast transdifferentiation using biochemical methods (i.e., Western blot and RT-PCR). These 4-day assays were used to evaluate sets of 6 compounds at a time in 4-point dose response fashion.
# After 24 hour incubation, cells were treated with the indicated doses of itraconazole for 48 hours in the presence of 10 ng/mL of TGF-β1 in hepatic stellate medium. Following fixation and staining with an anti smooth muscle actin antibody, cell morphology was analyzed with a Cellomics cell insight imaging reader (FIG. 1 for representative images). Cells were analyzed for mean cellular area of a-SMA staining (FIG. 5a) or mean fluorescence intensity of SMA staining (FIG. 5b).
# After 24 incubation, medium was changed to assay medium containing TGF-β1 (10 ng/mL) and simultaneously treated with itraconazole (10 μM), SB431542 (10 μM) or vehicle control (FIG. 6).
row,SMILES,EC50
1,CCC(C)n1cnn(-c2ccc(N3CCN(c4ccc(OC[C@@H]5CO[C@@](Cn6cncn6)(c6ccc(F)cc6F)O5)cc4)CC3)cc2)c1=O (mixture of isomers) [Compound 1],0.5 to 5 µM
2,CCC(C)n1cnn(-c2ccc(N3CCN(c4ccc(OC[C@@H]5CO[C@@](Cn6ccnn6)(c6ccc(F)cc6F)O5)cc4)CC3)cc2)c1=O (some centres unmarked) [Compound 2],0.5 to 5 µM
3,CCC(C)n1ncn(-c2ccc(N3CCN(c4ccc(OC[C@@H]5CO[C@@](Cn6nccn6)(c6ccc(Cl)cc6Cl)O5)cc4)CC3)nc2)c1=O (some centres unmarked) [Compound 24],0.5 to 5 µM
4,CCC(C)n1ncn(-c2ccc(N3CCN(c4ccc(OC[C@@H]5CO[C@@](Cn6nccn6)(c6cccc(Cl)c6)O5)cc4)CC3)cc2)c1=O (some centres unmarked) [Compound 33],0.5 to 5 µM
5,CCc1ccc([C@]2(Cn3nccn3)OC[C@@H](COc3ccc(N4CCN(c5ccc(-n6cnn(C(C)CC)c6=O)cc5)CC4)cc3)O2)cc1 (some centres unmarked) [Compound 34],0.5 to 5 µM
6,CCC(C)n1ncn(-c2ccc(N3CCN(c4ccc(OC[C@@H]5CO[C@@](Cn6nccn6)(c6ccc(Br)cc6)O5)cc4)CC3)cc2)c1=O (some centres unmarked) [Compound 35],0.5 to 5 µM
7,CCC(C)n1ncn(-c2ccc(N3CCN(c4ccc(OC[C@@H]5CO[C@@](Cn6nccn6)(c6ccc(C#N)cc6)O5)cc4)CC3)cc2)c1=O (some centres unmarked) [Compound 37],0.5 to 5 µM
8,CCC(C)n1ncn(-c2ccc(N3CCN(c4ccc(OC[C@@H]5CO[C@@](Cn6nccn6)(c6ccc(C(F)(F)F)cc6)O5)cc4)CC3)cc2)c1=O (some centres unmarked) [Compound 38],0.5 to 5 µM
9,CCC(C)n1ncn(-c2ccc(N3CCN(c4ccc(OC[C@@H]5CO[C@@](Cn6nccn6)(c6ccc(OC)cc6)O5)cc4)CC3)cc2)c1=O (some centres unmarked) [Compound 39],0.5 to 5 µM
10,CCC(C)n1ncn(-c2ccc(N3CCN(c4ccc(OC[C@@H]5CO[C@@](Cn6nccn6)(c6ccc(C)cc6)O5)cc4)CC3)cc2)c1=O (some centres unmarked) [Compound 40],0.5 to 5 µM
11,CCC(C)n1ncn(-c2ccc(N3CCN(c4ccc(OC[C@@H]5CO[C@@](Cn6nccn6)(c6ccccc6C(F)(F)F)O5)cc4)CC3)cc2)c1=O (some centres unmarked) [Compound 43],5 to 30 µM
12,CCC(C)n1ncn(-c2ccc(N3CCN(c4ccc(OC[C@@H]5CO[C@@](Cn6nccn6)(c6ccc(S(C)(=O)=O)cc6)O5)cc4)CC3)cc2)c1=O (some centres unmarked) [Compound 44],5 to 30 µM
13,CCC(C)n1ncn(-c2ccc(N3CCN(c4ccc(OC[C@@H]5CO[C@@](Cn6nccn6)(c6ccccc6OC)O5)cc4)CC3)cc2)c1=O (some centres unmarked) [Compound 45],5 to 30 µM
14,CCC(C)n1ncn(-c2ccc(N3CCN(c4ccc(OC[C@@H]5CO[C@@](Cn6nccn6)(c6ccc(Cl)cc6Cl)O5)c(C)c4)CC3)cc2)c1=O (some centres unmarked) [Compound 46],5 to 30 µM
15,CCC(C)n1ncn(-c2ccc(N3CCN(c4ccc(OC[C@@H]5CO[C@@](Cn6nccn6)(c6ccc(Cl)cc6Cl)O5)c(OC)c4)CC3)cc2)c1=O (some centres unmarked) [Compound 47],5 to 30 µM
16,CCC(C)n1ncn(-c2ccc(N3CCN(c4ccc(OC[C@@H]5CO[C@@](Cn6nccn6)(c6ccc(Cl)cc6Cl)O5)c(Cl)c4)CC3)cc2)c1=O (some centres unmarked) [Compound 48],0.5 to 5 µM
17,CCC(C)n1ncn(-c2ccc(N3CCN(c4ccc(OC[C@@H]5CO[C@@](Cn6nccn6)(c6ccc(Cl)cc6Cl)O5)cc4C)CC3)cc2)c1=O (some centres unmarked) [Compound 50],0.5 to 5 µM
18,CCC(C)n1ncn(-c2ccc(N3CCN(c4ccc(OC[C@@H]5CO[C@@](Cn6nccn6)(c6ccc(Cl)cc6Cl)O5)cc4OC)CC3)cc2)c1=O (some centres unmarked) [Compound 51],0.5 to 5 µM

row,SMILES,EC50
1,CCC(C)n1ncn(-c2ccc(N3CCN(c4ccc(OC[C@@H]5CO[C@@](Cn6nccn6)(c6ccc(Cl)cc6Cl)O5)cc4C#N)CC3)cc2)c1=O (some centres unmarked) [Compound 52],0.5 to 5 µM
2,CCC(C)n1ncn(-c2ccc(N3CCN(c4ccc(OC[C@@H]5CO[C@@](Cn6nccn6)(c6ccc(Cl)cc6Cl)O5)cc4Cl)CC3)cc2)c1=O (some centres unmarked) [Compound 53],0.5 to 5 µM
3,CCC(C)n1ncn(-c2ccc(N3CCN(c4ccc(OC[C@@H]5CO[C@@](Cn6nccn6)(c6ncccn6)O5)cc4)CC3)cc2)c1=O (some centres unmarked) [Compound 56],5 to 30 µM
4,CCC(C)n1ncn(-c2ccc(N3CCN(c4ccc(OC[C@@H]5CO[C@@](Cn6nccn6)(c6cnccn6)O5)cc4)CC3)cc2)c1=O (some centres unmarked) [Compound 57],5 to 30 µM
5,CCC(C)n1ncn(-c2ccc(N3CCN(c4ccc(OC[C@@H]5CO[C@@](Cn6nccn6)(C6CCCCC6)O5)cc4)CC3)cc2)c1=O (some centres unmarked) [Compound 58],5 to 30 µM
6,CCC(C)n1ncn(-c2ccc(N3CCN(c4ccc(OC[C@@H]5CO[C@@](Cn6nccn6)(c6cccc7ccccc67)O5)cc4)CC3)cc2)c1=O (some centres unmarked) [Compound 63],5 to 30 µM
7,CCC(C)n1ncn(-c2ccc(N3CCN(c4ccc(OC[C@@H]5CO[C@@](Cn6nccn6)(c6ccc(-c7ccccc7)cc6)O5)cc4)CC3)cc2)c1=O (some centres unmarked) [Compound 72],5 to 30 µM
8,CCC(C)n1ncn(-c2ccc(N3CCN(c4ccc(OC[C@@H]5CO[C@@](Cn6nccn6)(c6ccccc6C#N)O5)cc4)CC3)cc2)c1=O (some centres unmarked) [Compound 74],0.5 to 5 µM
9,CCC(C)n1ncn(-c2ccc(N3CCN(c4ccc(OC[C@@H]5CO[C@@](Cn6nccn6)(c6ccccn6)O5)cc4)CC3)cc2)c1=O (some centres unmarked) [Compound 75],5 to 30 µM
10,CCC(C)n1ncn(-c2ccc(N3CCN(c4ccc(OC[C@@H]5CO[C@@](Cn6nccn6)(c6nccs6)O5)cc4)CC3)cc2)c1=O (some centres unmarked) [Compound 78],5 to 30 µM
11,CCc1cc(N2CCN(c3ccc(-n4cnn(C(C)CC)c4=O)cc3)CC2)ccc1OC[C@@H]1CO[C@@](Cn2nccn2)(c2ccc(Cl)cc2Cl)O1 (some centres unmarked) [Compound 80],5 to 30 µM
12,CCc1cc(OC[C@@H]2CO[C@@](Cn3nccn3)(c3ccc(Cl)cc3Cl)O2)ccc1N1CCN(c2ccc(-n3cnn(C(C)CC)c3=O)cc2)CC1 (some centres unmarked) [Compound 81],5 to 30 µM
13,CCC(C)n1ncn(-c2ccc(N3CCN(c4ccc(OC[C@@H]5CO[C@@](Cn6nccn6)(c6cccnc6)O5)cc4)CC3)cc2)c1=O (some centres unmarked) [Compound 82],5 to 30 µM
14,CCC(C)n1ncn(-c2ccc(N3CCN(c4ccc(OC[C@@H]5CO[C@@](Cn6nccn6)(c6ccncc6)O5)cc4)CC3)cc2)c1=O (some centres unmarked) [Compound 83],5 to 30 µM
15,CCC(C)n1ncn(-c2ccc(N3CCN(c4ccc(OC[C@@H]5CO[C@@](Cn6nccn6)(C6CCC6)O5)cc4)CC3)cc2)c1=O (some centres unmarked) [Compound 88],0.5 to 5 µM
16,CCC(C)n1ncn(-c2ccc(N3CCN(c4ccc(OC[C@@H]5CO[C@@](Cn6nccn6)(C(C)C)O5)cc4)CC3)cc2)c1=O (some centres unmarked) [Compound 90],5 to 30 µM
17,CCC(C)n1ncn(-c2ccc(N3CCN(c4ccc(OC[C@@H]5CO[C@@](Cn6nccn6)(C6CCOCC6)O5)cc4)CC3)cc2)c1=O (some centres unmarked) [Compound 92],5 to 30 µM
18,CCC(C)n1ncn(-c2ccc(N3CCN(c4ccc(OC[C@@H]5CO[C@@](Cn6nccn6)(C6CCNCC6)O5)cc4)CC3)cc2)c1=O (some centres unmarked) [Compound 93],5 to 30 µM

# Target: Cyp3A4 (Homo sapiens, UniProt P08684)
# Sequence (P08684 whole entry): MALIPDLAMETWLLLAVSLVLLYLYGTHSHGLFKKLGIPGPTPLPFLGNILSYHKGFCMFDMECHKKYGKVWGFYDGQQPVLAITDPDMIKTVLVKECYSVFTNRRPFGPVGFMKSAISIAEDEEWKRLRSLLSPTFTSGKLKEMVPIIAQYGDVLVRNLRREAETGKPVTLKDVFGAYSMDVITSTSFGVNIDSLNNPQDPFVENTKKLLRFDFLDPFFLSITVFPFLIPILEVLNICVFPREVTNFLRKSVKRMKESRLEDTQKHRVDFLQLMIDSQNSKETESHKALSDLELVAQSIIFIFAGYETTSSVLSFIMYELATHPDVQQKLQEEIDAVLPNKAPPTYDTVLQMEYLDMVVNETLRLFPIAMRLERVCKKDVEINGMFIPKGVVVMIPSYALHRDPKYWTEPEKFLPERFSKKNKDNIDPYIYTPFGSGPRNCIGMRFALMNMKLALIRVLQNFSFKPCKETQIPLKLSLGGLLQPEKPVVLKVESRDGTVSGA
# Assay: Cyp reversible inhibition assay (human liver microsomes)
# Conditions: Cyp 3A4 midazolam LCMS IC50, human liver microsomes; substrate midazolam
# Method: The purpose of this assay was to determine reversible inhibition of Cyp enzyme with a given compound using a substrate probe turnover as the surrogate for inhibition. This was done with human liver microsomes rather an isolated enzyme to account for metabolites of parent drug leading to a potential drug-drug interaction through Cyp inhibition. The substrate turnover (for example conversion of midazolam to hydroxyl midazolam) was monitored by LCMSMS (Q1/Q2=342.2/203.2). Test compounds were tested in a 7-point dose response curve starting from 50 μM to 50 nM (˜3-fold dilution series).
# The detailed protocol was as follows: • Prepared test compounds and standard inhibitors working solution (100×) • Pulled microsomes out of the −80° C. freezer to thaw on ice, labeled with the date and put back to freezer immediately after using. • Added 20 μL of the substrate solutions to corresponding wells. • Added 20 μL PB to Blank wells. • Added 2 μL of the test compounds and positive control working solution to corresponding wells. • Added 2 μL MeOH to No Inhibitor wells and Blank wells. • Prepared HLM working solution. • Added 158 μL of the HLM working solution to all wells of incubation plate. • Pre-warmed the plate for about 10 min at 37° C. water bath. • Prepared NADPH cofactor solution. • Added 20 μL NADPH cofactor to all incubation wells. • Mixed and incubated for 10 minutes at 37° C. water bath. • At the time point, terminated the reaction by adding 400 μL cold stop solution (200 ng/mL Tolbutamide in ACN). • Centrifuged the samples at 4000 rpm for 20 minutes to precipitate protein. • Transferred 200 μL supernatant to 200 μL HPLC water and shook for 10 min. • Analyzed samples by LC/MS/MS.
row,IC50,SMILES
1,> 50 µM,CCC(C)n1ncn(-c2ccc(N3CCN(c4ccc(OC[C@@H]5CO[C@@](Cn6nccn6)(c6ccccc6C#N)O5)cc4)CC3)cc2)c1=O (some centres unmarked) [Compound 74]

# Same assay, conditions: Cyp 3A4 testosterone LCMS IC50, human liver microsomes; substrate testosterone
row,IC50,SMILES
1,4.5 µM,CCC(C)n1cnn(-c2ccc(N3CCN(c4ccc(OC[C@@H]5CO[C@@](Cn6cncn6)(c6ccc(F)cc6F)O5)cc4)CC3)cc2)c1=O (mixture of isomers) [Compound 1]
2,> 30 µM,CCC(C)n1cnn(-c2ccc(N3CCN(c4ccc(OC[C@@H]5CO[C@@](Cn6ccnn6)(c6ccc(F)cc6F)O5)cc4)CC3)cc2)c1=O (some centres unmarked) [Compound 2]
3,> 30 µM,CCC(C)n1ncn(-c2ccc(N3CCN(c4ccc(OC[C@@H]5CO[C@@](Cn6nccn6)(c6ccc(Cl)cc6Cl)O5)cc4)CC3)nc2)c1=O (some centres unmarked) [Compound 24]
4,> 50 µM,CCC(C)n1ncn(-c2ccc(N3CCN(c4ccc(OC[C@@H]5CO[C@@](Cn6nccn6)(c6ccccc6C#N)O5)cc4)CC3)cc2)c1=O (some centres unmarked) [Compound 74]
